Results published in US20230085307A1, “PYRIDAZINONE COMPOUND AND HERBICIDE” (NISSAN CHEMICAL CORPORATION, priority 2019, published 2023).

Assays:
[1] = test system: barnyard grass; assay: Test Example 4: herbicidal effect by soil treatment (Table 19, symbol H); assay type: in vivo, barnyard grass (Echinochloa crus-galli)
Method in brief: (§1)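 Soil-surface application: an emulsion agent diluted with water to the predetermined dose is sprayed uniformly over seeds lying under roughly 1.5 cm of sterilized diluvial soil. Boxes stay in a greenhouse at 25° C. to 30° C. Three weeks later, each species is graded on previously defined criteria.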

[2] = test system: windgrass; assay: Test Example 4: herbicidal effect by soil treatment (Table 19, symbol L); assay type: in vivo, windgrass (Apera spica-venti)
Method in brief: as §1

[3] = test system: rice flat sedge; assay: Test Example 3: herbicidal effect by foliage application, Wagner pot (Table 18, symbol E); assay type: in vivo, rice flat sedge (Cyperus iria); settings: 320 g/ha
Method in brief: (§2)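 Plants were sown in alluvial soil held under 0.1–0.5 cm standing water and grown 14 days in a greenhouse at 25–30 °C. An emulsifiable formulation, water-diluted to the set dose, was then sprayed onto the foliage, and effects were scored three weeks later using previously defined criteria.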

[4] = test system: redroot pigweed; assay: Test Example 5: herbicidal effect by foliage application, plastic box (Table 20, symbol N); assay type: in vivo, redroot pigweed (Amaranthus retroflexus); settings: foliage application
Method in brief: (§3)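 Sow seeds spot-wise in sterilized diluvial soil; cover with ~1.5 cm soil. Grow 14 days in greenhouse, 25° C. to 30° C. Spray foliage with emulsion diluted to predetermined amount. Rate effect after 3 weeks.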

[5] = test system: barnyard grass; assay: Test Example 5: herbicidal effect by foliage application, plastic box (Table 20, symbol H); assay type: in vivo, barnyard grass (Echinochloa crus-galli); settings: foliage application
Method in brief: as §3

[6] = test system: persian speedwell; assay: Test Example 4: herbicidal effect by soil treatment (Table 19, symbol R); assay type: in vivo, Persian speedwell (Veronica persica)
Method in brief: as §1

[7] = test system: green foxtail; assay: Test Example 4: herbicidal effect by soil treatment (Table 19, symbol G); assay type: in vivo, green foxtail (Setaria viridis)
Method in brief: as §1

[8] = test system: Italian ryegrass; assay: Test Example 5: herbicidal effect by foliage application, plastic box (Table 20, symbol K); assay type: in vivo, Italian ryegrass (Lolium multiflorum); settings: foliage application
Method in brief: as §3

[9] = test system: southern crabgrass; assay: Test Example 5: herbicidal effect by foliage application, plastic box (Table 20, symbol F); assay type: in vivo, southern crabgrass (Digitaria ciliaris); settings: foliage application
Method in brief: as §3

[10] = test system: Chinese sprangletop; assay: Test Example 3: herbicidal effect by foliage application, Wagner pot (Table 18, symbol D); assay type: in vivo, chinese sprangletop (Leptochloa chinensis)
Method in brief: as §2

[11] = test system: velvetleaf; assay: Test Example 4: herbicidal effect by soil treatment (Table 19, symbol M); assay type: in vivo, velvetleaf (Abutilon theophrasti)
Method in brief: as §1

[12] = test system: lambsquarters; assay: Test Example 4: herbicidal effect by soil treatment (Table 19, symbol O); assay type: in vivo, lambsquarters (Chenopodium album)
Method in brief: as §1

[13] = test system: redroot pigweed; assay: Test Example 4: herbicidal effect by soil treatment (Table 19, symbol N); assay type: in vivo, redroot pigweed (Amaranthus retroflexus)
Method in brief: as §1

[14] = test system: windgrass; assay: Test Example 5: herbicidal effect by foliage application, plastic box (Table 20, symbol L); assay type: in vivo, windgrass (Apera spica-venti); settings: foliage application
Method in brief: as §3

[15] = test system: lambsquarters; assay: Test Example 5: herbicidal effect by foliage application, plastic box (Table 20, symbol O); assay type: in vivo, lambsquarters (Chenopodium album); settings: foliage application
Method in brief: as §3

[16] = test system: chickweed; assay: Test Example 4: herbicidal effect by soil treatment (Table 19, symbol P); assay type: in vivo, common chickweed (Stellaria media)
Method in brief: as §1

[17] = test system: wild oat; assay: Test Example 4: herbicidal effect by soil treatment (Table 19, symbol I); assay type: in vivo, wild oat (Avena fatua)
Method in brief: as §1

[18] = test system: southern crabgrass; assay: Test Example 4: herbicidal effect by soil treatment (Table 19, symbol F); assay type: in vivo, southern crabgrass (Digitaria ciliaris)
Method in brief: as §1

[19] = test system: Italian ryegrass; assay: Test Example 4: herbicidal effect by soil treatment (Table 19, symbol K); assay type: in vivo, Italian ryegrass (Lolium multiflorum)
Method in brief: as §1

[20] = test system: wild oat; assay: Test Example 5: herbicidal effect by foliage application, plastic box (Table 20, symbol I); assay type: in vivo, wild oat (Avena fatua); settings: foliage application
Method in brief: as §3

[21] = test system: persian speedwell; assay: Test Example 5: herbicidal effect by foliage application, plastic box (Table 20, symbol R); assay type: in vivo, Persian speedwell (Veronica persica); settings: foliage application
Method in brief: as §3

[22] = test system: chickweed; assay: Test Example 5: herbicidal effect by foliage application, plastic box (Table 20, symbol P); assay type: in vivo, common chickweed (Stellaria media); settings: foliage application
Method in brief: as §3

[23] = test system: green foxtail; assay: Test Example 5: herbicidal effect by foliage application, plastic box (Table 20, symbol G); assay type: in vivo, green foxtail (Setaria viridis); settings: foliage application
Method in brief: as §3

[24] = test system: velvetleaf; assay: Test Example 5: herbicidal effect by foliage application, plastic box (Table 20, symbol M); assay type: in vivo, velvetleaf (Abutilon theophrasti); settings: foliage application
Method in brief: as §3

[25] = test system: blackgrass; assay: Test Example 5: herbicidal effect by foliage application, plastic box (Table 20, symbol J); assay type: in vivo, blackgrass (Alopecurus myosuroides); settings: foliage application
Method in brief: as §3

[26] = test system: barnyard grass; assay: Test Example 3: herbicidal effect by foliage application, Wagner pot (Table 18, symbol H); assay type: in vivo, barnyard grass (Echinochloa crus-galli)
Method in brief: as §2

[27] = test system: blackgrass; assay: Test Example 4: herbicidal effect by soil treatment (Table 19, symbol J); assay type: in vivo, blackgrass (Alopecurus myosuroides)
Method in brief: as §1

[28] = amount of applied herbicide 320 g/ha
[29] = 320 g/ha, three weeks after application
[30] = 96 g/ha, evaluated three weeks after application

## CCOc1ccc(-c2sc3ccccc3c2-c2c(O)c(C)nn(C)c2=O)cn1 [1-076]
[1]; [28]
  herbicidal effect rating, H: barnyard grass: 0 (Herbicidal rate of 5% or less (almost no effect))
[2]; [28]
  herbicidal effect rating, L: windgrass: 0 (Herbicidal rate of 5% or less (almost no effect))
[3]
  herbicidal effect on E (rice flat sedge), rating 0-5: 5 (Herbicidal rate of 90% or more (almost completely withered))
[4]; [29]
  herbicidal effect grade, N: redroot pigweed: 2 (Herbicidal rate of 20% or more and less than 40%)
[5]; [29]
  herbicidal effect grade, H: barnyard grass: 0 (Herbicidal rate of 5% or less (almost no effect))
[6]; [28]
  herbicidal effect rating, R: persian speedwell: 5 (Herbicidal rate of 90% or more (almost completely withered))
[7]; [28]
  herbicidal effect rating, G: green foxtail: 1 (Herbicidal rate of 5% or more and less than 20%)
[8]; [29]
  herbicidal effect grade, K: Italian ryegrass: 1 (Herbicidal rate of 5% or more and less than 20%)
[9]; [29]
  herbicidal effect grade, F: southern crabgrass: 0 (Herbicidal rate of 5% or less (almost no effect))
[10]; 320 g/ha
  herbicidal effect on D (Chinese sprangletop), rating 0-5: 0 (Herbicidal rate of 5% or less (almost no effect))
[11]; [28]
  herbicidal effect rating, M: velvetleaf: 0 (Herbicidal rate of 5% or less (almost no effect))
[12]; [28]
  herbicidal effect rating, O: lambsquarters: 0 (Herbicidal rate of 5% or less (almost no effect))
[13]; [28]
  herbicidal effect rating, N: redroot pigweed: 0 (Herbicidal rate of 5% or less (almost no effect))
[14]; [29]
  herbicidal effect grade, L: windgrass: 0 (Herbicidal rate of 5% or less (almost no effect))
[15]; [29]
  herbicidal effect grade, O: lambsquarters: 1 (Herbicidal rate of 5% or more and less than 20%)
[16]; [28]
  herbicidal effect rating, P: chickweed: 5 (Herbicidal rate of 90% or more (almost completely withered))
[17]; [28]
  herbicidal effect rating, I: wild oat: 0 (Herbicidal rate of 5% or less (almost no effect))
[18]; [28]
  herbicidal effect rating, F: southern crabgrass: 0 (Herbicidal rate of 5% or less (almost no effect))
[19]; [28]
  herbicidal effect rating, K: Italian ryegrass: 0 (Herbicidal rate of 5% or less (almost no effect))
[20]; [29]
  herbicidal effect grade, I: wild oat: 0 (Herbicidal rate of 5% or less (almost no effect))
[21]; [29]
  herbicidal effect grade, R: persian speedwell: 5 (Herbicidal rate of 90% or more (almost completely withered))
[22]; [29]
  herbicidal effect grade, P: chickweed: 5 (Herbicidal rate of 90% or more (almost completely withered))
[23]; [29]
  herbicidal effect grade, G: green foxtail: 0 (Herbicidal rate of 5% or less (almost no effect))
[24]; [29]
  herbicidal effect grade, M: velvetleaf: 3 (Herbicidal rate of 40% or more and less than 70%)
[25]; [29]
  herbicidal effect grade, J: blackgrass: 0 (Herbicidal rate of 5% or less (almost no effect))
[26]; 320 g/ha
  herbicidal effect on H (barnyard grass), rating 0-5: 1 (Herbicidal rate of 5% or more and less than 20%)
[27]; [28]
  herbicidal effect rating, J: blackgrass: 0 (Herbicidal rate of 5% or less (almost no effect))

## Cc1nn(C)c(=O)c(-c2c(-c3ccccc3)sc3ccc(Cl)cc23)c1O [2-094]
[1]; 96 g/ha
  herbicidal effect rating, H: barnyard grass: 0 (Herbicidal rate of 5% or less (almost no effect))
[2]; 96 g/ha
  herbicidal effect rating, L: windgrass: 0 (Herbicidal rate of 5% or less (almost no effect))
[4]; [30]
  herbicidal effect on N: redroot pigweed: 3 (Herbicidal rate of 40% or more and less than 70%)
[5]; [30]
  herbicidal effect on H: barnyard grass: 0 (Herbicidal rate of 5% or less (almost no effect))
[6]; 96 g/ha
  herbicidal effect rating, R: persian speedwell: 0 (Herbicidal rate of 5% or less (almost no effect))
[7]; 96 g/ha
  herbicidal effect rating, G: green foxtail: 0 (Herbicidal rate of 5% or less (almost no effect))
[8]; [30]
  herbicidal effect on K: Italian ryegrass: 2 (Herbicidal rate of 20% or more and less than 40%)
[9]; [30]
  herbicidal effect on F: southern crabgrass: 0 (Herbicidal rate of 5% or less (almost no effect))
[10]; 96 g/ha
  herbicidal effect on D (Chinese sprangletop), rating 0-5: 0 (Herbicidal rate of 5% or less (almost no effect))
[11]; 96 g/ha
  herbicidal effect rating, M: velvetleaf: 0 (Herbicidal rate of 5% or less (almost no effect))
[12]; 96 g/ha
  herbicidal effect rating, O: lambsquarters: 3 (Herbicidal rate of 40% or more and less than 70%)
[13]; 96 g/ha
  herbicidal effect rating, N: redroot pigweed: 5 (Herbicidal rate of 90% or more (almost completely withered))
[14]; [30]
  herbicidal effect on L: windgrass: 0 (Herbicidal rate of 5% or less (almost no effect))
[15]; [30]
  herbicidal effect on O: lambsquarters: 2 (Herbicidal rate of 20% or more and less than 40%)
[16]; 96 g/ha
  herbicidal effect rating, P: chickweed: 0 (Herbicidal rate of 5% or less (almost no effect))
[17]; 96 g/ha
  herbicidal effect rating, I: wild oat: 0 (Herbicidal rate of 5% or less (almost no effect))
[18]; 96 g/ha
  herbicidal effect rating, F: southern crabgrass: 0 (Herbicidal rate of 5% or less (almost no effect))
[19]; 96 g/ha
  herbicidal effect rating, K: Italian ryegrass: 0 (Herbicidal rate of 5% or less (almost no effect))
[20]; [30]
  herbicidal effect on I: wild oat: 0 (Herbicidal rate of 5% or less (almost no effect))
[21]; [30]
  herbicidal effect on R: persian speedwell: 1 (Herbicidal rate of 5% or more and less than 20%)
[22]; [30]
  herbicidal effect on P: chickweed: 5 (Herbicidal rate of 90% or more (almost completely withered))
[23]; [30]
  herbicidal effect on G: green foxtail: 0 (Herbicidal rate of 5% or less (almost no effect))
[24]; [30]
  herbicidal effect on M: velvetleaf: 3 (Herbicidal rate of 40% or more and less than 70%)
[25]; [30]
  herbicidal effect on J: blackgrass: 0 (Herbicidal rate of 5% or less (almost no effect))
[26]; 96 g/ha
  herbicidal effect on H (barnyard grass), rating 0-5: 2 (Herbicidal rate of 20% or more and less than 40%)
[27]; 96 g/ha
  herbicidal effect rating, J: blackgrass: 0 (Herbicidal rate of 5% or less (almost no effect))
